These results are taken from patent publication US4071528A, “Certain thiazolidine and tetrahydrothiazine compounds” (May & Baker Limited, priority 1975, dated 1978).

Read-outs that look alike come from different tables or passages of the source. Some results are limits rather than exact numbers.

Series [1] relates to Nippostrongylus brasiliensis. Description: Activity against roundworms in rats, A.1: treatment 6 days after infection (patent infection), post-mortem worm counts. The format is in vivo. Conditions: 48 h, treated 6 days after infection, read-out: % Reduction of mean worm load. Here is the method:
In the Tables of results "s.c." means subcutaneous and the doses are expressed in mg/kg animal body weight. […] A.1. Rats were infected with 100 Nippostrongylus brasiliensis larvae each, by the subcutaneous route. After 6 days, when the infection was patent, the rats were randomised and allotted to groups of 5 animals each, ready for treatment. One group was used for each dose level of the test compound, which was administered by the oral or subcutaneous route, and in each experiment, one group of 10 animals was left untreated as a control. All the rats were killed for post-mortem worm counts 48 hours after treatment. The activities, expressed in terms of the percentage reduction in mean worm load of the treated groups compared with the untreated group, are shown in Table I.

Series [2] in a line: Oral acute toxicity (LD50) in mice. Particulars: mouse, in vivo, observed during next 6 days. The text has this:
Mice were each treated orally with one of the compounds of formula I, and they were observed during the next 6 days. The LD50 figures obtained (doses lethal to 50% of mice tested) are shown in Table VII, expressed in mg/kg animal body weight.

Series [3] has as its system Nippostrongylus brasiliensis. Briefly: Activity against roundworms in rats, A.2: treatment 24 hours after infection, post-mortem worm counts. Conditions: 144 h, treated 24 hours after infection, read-out: % Reduction of mean worm load. The format is in vivo. On the procedure: In the Tables of results "s.c." means subcutaneous and the doses are expressed in mg/kg animal body weight. […] A.2. Rats were infected with 100 Nippostrongylus brasiliensis larvae each, by the subcutaneous route. After 24 hours the rats were randomised and allotted to groups of 5 animals each, ready for treatment. Doses of the test compound were then administered to each group by the oral or subcutaneous route, one group of 10 animals being left untreated as a control. All the rats were killed for post-mortem worm counts 6 days after dosing. The activities, expressed in terms of the percentage reduction in mean worm load of the treated groups compared with the untreated control group, are given below in Table II.

In series [4] the test system is Cooperia oncophora and Ostertagia ostertagi. Briefly: C.1 Activity against Cooperia oncophora and Ostertagia ostertagi in their adult stages in calves, faecal egg counts. The format is in vivo. Particulars: s.c. (methanesulphonate salt). Here is the method: In the Tables of results "s.c." means subcutaneous and the doses are expressed in mg/kg animal body weight. […] C.1. Activity against Cooperia oncophora and Ostertagia ostertagi in their adult stages in calves. Worm-free, 6-7 week old calves were each infected with 15,000 C. oncophora and 15,000 O. ostertagi larvae. Approximately 3 weeks later, doses of the test compound were administered to each group of 2 animals by the subcutaneous route, one group of two animals being left untreated as a control. Individual faecal egg counts were determined 1 day before treatment and 5-7 days after treatment.

The test system of series [5] is Fasciola hepatica. Description: D. Activity against mature and immature liver flukes in sheep. The format is in vivo. Conditions: oral 25 mg/kg in gelatin capsules; for Mean % Reduction, Immature flukes: immature flukes in rest of liver; for Mean % Reduction, Mature flukes: mature flukes in bile ducts. Here is the method: D. Activity against mature and immature liver flukes in sheep On the first day of the experiment a group of sheep were each infected with 300 metacercariae of liver fluke Fasciola hepatica and on the 56th day they were each infected with a further 300 metacercariae of F. hepatica. On day 70 of the experiment, doses of the test compounds of 25 mg/kg animal body weight were administered orally in gelatin capsules to groups of two animals per compound. One group of two animals was left untreated as controls. On day 98 of the experiment, all the sheep were killed. The number of mature flukes present in the bile ducts and the numbers of immature flukes present in the rest of the liver were counted. The activities, expressed in terms of the percentage reduction in mean fluke burdens compared with the untreated controls, are shown below in Table VI.

Series [6] deals with Mycosphaerella pinodes. Description: Minimum effective concentration totally inhibiting fungal growth, Mycosphaerella pinodes, potato dextrose agar tubes. The format is cell-based. Particulars: Didymella pinodes, 48 h; total inhibition of fungal growth; tested at 50, 10 or 2 ppm; 25° C, 2 days. On the procedure: Test tubes containing 4.0 ml of molten potato dextrose agar at about 50° C were inoculated with 0.5 ml of suspension of test compound and 0.5 ml of fungal suspension delivered from a sterile syringe to give a final concentration of each compound of 50, 10 or 2 ppm. Two replicate tubes were inoculated with each fungal species. After the addition of test compounds and fungal inoculum to the molten medium the tubes were sloped and the agar was allowed to set. The tubes were incubated at 25° C for either 2 days (Mycosphaerella pinodes) or 3 days (Helminthosporium avenae). […] The suspensions of test compounds were prepared by grinding 0.025 g of test compound with sterile distilled water containing 0.1 ml of 0.1% Texofor FX170 wetting agent, followed by dilution to the concentration desired. The inoculum of Mycosphaerella pinodes was prepared as follows: A one to two week old culture on Coon's agar on plates was scraped off with a glass rod and sterile distilled water and filtered through muslin. The filtrate, containing the spores, was used for inoculation.

The mark [7] stands for this setting: sc, s.c. (methanesulphonate salt, aqueous).

As usually defined, the LD50 is the dose at which mortality reaches 50%. Low values mean greater toxicity, high ones lower toxicity. For orientation: MIC means the lowest concentration that inhibits growth of the organism. Higher therefore signals a less susceptible organism.

Consider `COC(=O)N=C1SCC(=O)N1c1ccc(Sc2ccccc2)cc1NC(=O)CCN(C)C` [L, 3-[2-(3-dimethylaminopropionamido)-4-phenylthiophenyl]-2-methoxycarbonyliminothiazolidin-4-one], for which, in series [1] (oral), the inhibition in vivo at 100 mg/kg amounted to 90%. The compound also came in with an LD50 at 144 h in series [2] above 1000 mg/kg. In addition, the inhibition in vivo at 50 mg/kg came out at 81% in series [3] (oral) and 90% in series [3] (setting [7]). The “% Reduction of mean egg count” value in series [4] (15 mg/kg) amounted to 84%.

Turning to `CCN(CC)CC(=O)Nc1cc(Sc2ccccc2)ccc1N1C(=O)CSC1=NC(=O)OC` [Compound D, 3-[2-(2-diethylaminoacetamido)-4-phenylthiophenyl]-2-methoxycarbonyliminothiazolidin-4-one], in series [5], the “Mean % Reduction, Immature flukes” value is 75% and the “Mean % Reduction, Mature flukes” value was “less than 50%”. Also, in series [1] (oral), the inhibition in vivo at 100 mg/kg was found to be 99%. Also, the inhibition in vivo at 100 mg/kg in series [1] (setting [7]) came to 88%. For the same compound, the median lethal dose (LD50) at 144 h in series [2] was above 1000 mg/kg. Besides, in series [3] (oral), the inhibition in vivo at 12.5 mg/kg amounted to 96% and the inhibition in vivo at 50 mg/kg turned out to be 98%. Besides, in series [3] (setting [7]), the inhibition in vivo at 25 mg/kg was 96% and the inhibition in vivo at 50 mg/kg amounted to 100%. In series [4] (15 mg/kg), the “% Reduction of mean egg count” value is 98%.

For `C=CCSc1ccc(N2C(=O)CSC2=NC(=O)OC)c(NC(=O)CN(C)C)c1` [B, 3-[4-allylthio-2-(2-dimethylaminoacetamido)phenyl]-2-methoxycarbonyliminothiazolidin-4-one], the inhibition in vivo at 100 mg/kg is 97% in series [1] (oral) and 90% in series [1] (setting [7]). Moreover, in series [2], the LD50 at 144 h was above 1000 mg/kg. Also, the inhibition in vivo at 50 mg/kg in series [3] (oral) worked out at 98%; in series [3] (setting [7]), 97%. In addition, the “% Reduction of mean egg count” value in series [4] (15 mg/kg) was 44%.

With `COC(=O)N=C1SCC(=O)N1c1ccc(SCC2CCCCC2)cc1NC(=O)CN(C)C` [F, 3-[4-cyclohexylmethylthio-2-(2-dimethylaminoacetamido)phenyl]-2-methoxycarbonyliminothiazolidin-4-one], the inhibition in vivo at 100 mg/kg in series [3] (oral) came to 59%; in series [3] (setting [7]), 46%. Moreover, in series [4] (25 mg/kg), the “% Reduction of mean egg count” value worked out at 50%.

In series [6], `COC(=O)N=C1SCC(=O)N1c1cc(Sc2ccccc2)ccc1NC(=O)CN(C)C` [Compound E, 3-[2-(2-dimethylaminoacetamido)-5-phenylthiophenyl]-2-methoxycarbonyliminothiazolidin-4-one] registered a minimum inhibitory concentration (MIC) below 2 µg/mL. Further, the inhibition in vivo at 100 mg/kg in series [1] (oral) was 65%; in series [1] (setting [7]) it was 54%. In series [2], the 50% lethal dose (LD50) at 144 h was above 1000 mg/kg. Also, the inhibition in vivo at 50 mg/kg in series [3] (oral) amounted to 95%; in series [3] (setting [7]) it was 99%. Also, the “% Reduction of mean egg count” value in series [4] (15 mg/kg) was determined as 100%.

For `CCCSc1ccc(N2C(=O)CSC2=NC(=O)OC)c(NC(=O)CN(C)C)c1` [K, 3-[2-(2-dimethylaminoacetamido)-4-n-propylthiophenyl]-2-methoxycarbonyliminothiazolidin-4-one], the inhibition in vivo at 50 mg/kg in series [1] (oral) was 99%; in series [1] (setting [7]), 96%; in series [3] (oral) it was 97%; in series [3] (setting [7]), 98%. In series [2], this compound yielded a median lethal dose (LD50) at 144 h above 1000 mg/kg. Further, the inhibition in vivo at 3.125 mg/kg is 92% in series [3] (oral) and 96% in series [3] (setting [7]). In series [4] (15 mg/kg), the “% Reduction of mean egg count” value worked out at 85%.

On to `CCCCCSc1ccc(N2C(=O)CSC2=NC(=O)OC)c(NC(=O)CN(C)C)c1` [J, 3-[2-(2-dimethylaminoacetamido)-4-n-pentylthiophenyl]-2-methoxycarbonyliminothiazolidin-4-one], for which the inhibition in vivo at 100 mg/kg turned out to be 59% in series [1] (oral), 99% in series [3] (oral) and 99% in series [3] (setting [7]). The compound further gave a median lethal dose (LD50) at 144 h in series [2] above 1000 mg/kg. Besides, the inhibition in vivo at 50 mg/kg in series [3] (oral) and in series [3] (setting [7]) was 99% throughout.

`CCCCSc1ccc(N2C(=O)CSC2=NC(=O)OC)c(NC(=O)CN(C)C)c1` [G, 3-[4-n-butylthio-2-(2-dimethylaminoacetamido)phenyl]-2-methoxycarbonyliminothiazolidin-4-one]: the inhibition in vivo at 100 mg/kg in series [1] (oral) came out at 96%; in series [1] (setting [7]) it was 84%. Also, the LD50 at 144 h in series [2] was above 1000 mg/kg. Also, the inhibition in vivo at 12.5 mg/kg came out at 95% in series [3] (oral) and 96% in series [3] (setting [7]). Moreover, the inhibition in vivo at 50 mg/kg was found to be 98% in series [3] (oral) and 100% in series [3] (setting [7]).

Turning to `CCSc1ccc(N2C(=O)CSC2=NC(=O)OC)c(NC(=O)CN(C)C)c1` [C, 3-[4-ethylthio-2-(2-dimethylaminoacetamido)phenyl]-2-methoxycarbonyliminothiazolidin-4-one], the “Mean % Reduction, Immature flukes” value in series [5] is given as 85%. For the same compound, in series [5], the “Mean % Reduction, Mature flukes” value was found to be 72%. The inhibition in vivo at 100 mg/kg in series [1] (oral) was 74%; in series [1] (setting [7]), 89%. The compound also gave a median lethal dose (LD50) at 144 h in series [2] above 1000 mg/kg. The inhibition in vivo at 12.5 mg/kg stood at 81% in series [3] (oral) and 86% in series [3] (setting [7]). Further, the inhibition in vivo at 50 mg/kg worked out at 90% in series [3] (oral) and 98% in series [3] (setting [7]). Besides, the “% Reduction of mean egg count” value in series [4] (15 mg/kg) is 100%.

The compound `COC(=O)N=C1SCC(=O)N1c1ccc(SC2CCCC2)cc1NC(=O)CN(C)C` [I, 3-[4-cyclopentylthio-2-(2-dimethylaminoacetamido)phenyl]-2-methoxycarbonyliminothiazolidin-4-one] displayed an LD50 at 144 h in series [2] above 1000 mg/kg. Also, the inhibition in vivo at 25 mg/kg is 97% in series [3] (oral) and 87% in series [3] (setting [7]). For the same compound, the inhibition in vivo at 100 mg/kg came out at 96% in series [3] (oral) and 99% in series [3] (setting [7]).
